According to patent publication US7803816B2, “MCH receptor antagonists” (Hoffmann-La Roche Inc., priority 2005, dated 2010):
Where a name gives a salt, the structure may show the parent alone. Read-outs that look alike come from different tables or passages of the source.

Biological target: T1, recombinant human MCHR1-receptors (Homo sapiens, UniProt Q99705)
T1 construct: expressed in transfected cells
Assay: MCHR filter binding assay (competition binding)
Settings: membranes from CHO-K1 cells expressing human MCHR1, 0.2 nM [Phe13,[125I]Tyr19]-MCH
Description: MCHR Filter Binding Assay
Competition binding assays were performed using membranes from CHO-K1 cells stably expressing the recombinant human MCHR1-receptors. Binding reactions (90 μl, final volume) were carried out at rt by incubating 2.8 μg membranes with 0.2 nM [Phe^13,[^125I]Tyr^19]-MCH (PerkinElmer) in the absence or presence of various concentrations of competing ligands in binding buffer (50 mM HEPES, 2.5 mM CaCl2, 0.05 mM BSA, 1 mM phenanthroline, 0.03 mM Triton X-100). [Phe^13,[^125I]Tyr^19]-MCH was added 15 min following the addition of unlabeled competing ligands, and the reactions incubated for a 1 h period. The reactions were terminated by rapid filtration over pretreated 96-well filter plates (Millipore; MultiScreen 0.65 μm GFB filter plates). Filter Plates were treated for 12 h at 4° C. with a 0.5% polyvinylpyrrolidone solution containing 1% BSA and 0.1% Tween 20, and then washed with an ice-cold solution of 10 mM Tris, pH 7.5 (5×200 μl). The plates were drained following a 5 min incubation with binding buffer (200 μl) at rt. Following termination of the binding reactions, the filters were washed with ice-cold binding buffer (4×200 μl). The filter plates were air dried for 30 min, scintillation cocktail (60 μl) added to each well and radioactivity bound to the plates was determined using a Micro-beta plate reader (Wallace/PerkinElmer).

[1] = read-out: IC50 (nM), in vitro activity (binding assay)

T1 sequence (Q99705 whole entry): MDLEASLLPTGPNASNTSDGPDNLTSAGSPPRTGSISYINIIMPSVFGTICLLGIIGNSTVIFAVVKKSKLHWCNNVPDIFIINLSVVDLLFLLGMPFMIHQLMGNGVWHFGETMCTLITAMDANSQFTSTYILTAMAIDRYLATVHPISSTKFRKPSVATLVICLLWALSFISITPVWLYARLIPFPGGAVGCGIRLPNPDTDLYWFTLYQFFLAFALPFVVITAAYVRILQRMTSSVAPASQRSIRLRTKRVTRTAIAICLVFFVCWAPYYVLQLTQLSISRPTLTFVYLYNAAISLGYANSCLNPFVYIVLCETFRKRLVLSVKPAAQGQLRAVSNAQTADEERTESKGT

Compound	IC50 [1] [nM]	IC50 (read-out: IC50 (nM), selected in vitro MCH-R binding data) [nM]
CCC(=O)Nc1ccc2c(c1)C[C@H](CN1CC[C@@H](n3c(C(C)C)nc4cc(C)ccc43)[C@H](O)C1)C2 [Example 84, N-{(R)-2-[(3R,4R)-3-Hydroxy-4-(2-isopropyl-5-methyl-benzoimidazol-1-yl)-piperidin-1-ylmethyl]-indan-5-yl}-propionamide]	< 20	
CO[C@@H]1CN(CC2Cc3ccc(C(C)C)cc3C2)CC[C@H]1n1c(C(C)C)nc2cc(C)ccc21 (stereo partly drawn) [Example 98, 2-Isopropyl-1-[(3R,4R)-1-(5-isopropyl-indan-2-ylmethyl)-3-methoxy-piperidin-4-yl]-5-methyl-1H-benzoimidazole]	200 to 5000	
CO[C@@H]1CN(C[C@H]2Cc3ccc(F)cc3C2)CC[C@H]1n1c(C(C)(C)O)nc2cc(C)ccc21 [Example 108, 2-{1-[(3R,4R)-1-((S)-5-Fluoro-indan-2-ylmethyl)-3-methoxy-piperidin-4-yl]-5-methyl-1H-benzoimidazol-2-yl}-propan-2-ol]	20 to 200	
CCC(=O)Nc1ccc2c(c1)C[C@H](CN1CC[C@@H](n3c(C(C)C)nc4cc(C)ccc43)[C@H](OC)C1)C2 [Example 45, N-{(R)-2-[(3R,4R)-4-(2-Isopropyl-5-methyl-benzoimidazol-1-yl)-3-methoxy-piperidin-1-ylmethyl]-indan-5-yl}-propionamide]	20 to 200	
CO[C@@H]1CN(C[C@@H]2Cc3ccc(NC(=O)C(C)C)cc3C2)CC[C@H]1n1c(C)nc2cc(C)ccc21 [Example 47, N-{(R)-2-[(3R,4R)-4-(2,5-Dimethyl-benzoimidazol-1-yl)-3-methoxy-piperidin-1-ylmethyl]-indan-5-yl}-isobutyramide]	20 to 200	
CSC1CN(C[C@@H]2Cc3ccc(NC(=O)C(C)C)cc3C2)CCC1n1c(C)nc2cc(C)ccc21 (stereo partly drawn) [Example 22, N-{(R)-2-[4-(2,5-Dimethyl-benzoimidazol-1-yl)-3-methylsulfanyl-piperidin-1-ylmethyl]-indan-5-yl}-isobutyramide; dihydrochloride]	20 to 200	
CO[C@H]1CN(CC2Cc3ccccc3C2)CC[C@@H]1n1c(C(C)C)nc2cc(C)ccc21 [Example 29, 1-((3S,4S)-1-Indan-2-ylmethyl-3-methoxy-piperidin-4-yl)-2-isopropyl-5-methyl-1H-benzoimidazole]	200 to 5000	
COc1ccc2c(c1)CC(CN1CC[C@H](n3c(C(C)C)nc4cc(C)ccc43)[C@@H](OC)C1)C2 (stereo partly drawn) [Example 93, 2-Isopropyl-1-[(3S,4S)-3-methoxy-1-(5-methoxy-indan-2-ylmethyl)-piperidin-4-yl]-5-methyl-1H-benzoimidazole dihydrochloride]	20 to 200	
Cc1ccc2c(c1)nc(-c1ccccc1)n2C1CCN(C[C@@H]2Cc3ccc(NC(=O)C(C)C)cc3C2)CC1 [Example 33, N-{(R)-2-[4-(5-Methyl-2-phenyl-benzoimidazol-1-yl)-piperidin-1-ylmethyl]-indan-5-yl}-isobutyramide]	< 20	
Cc1ccc2c(c1)nc(C)n2C1CCN(CC2=Cc3cc(NC(=O)C(C)C)ccc3C2)CC1 [Example 54, N-{2-[4-(2,5-Dimethyl-benzoimidazol-1-yl)-piperidin-1-ylmethyl]-1H-inden-5-yl}-isobutyramide]	200 to 5000	
CO[C@@H]1CN(CC2Cc3ccc(F)cc3C2)CC[C@H]1n1c(C)nc2cc(C)ccc21 (stereo partly drawn) [Example 20, 1-[(3R,4R)-1-(5-Fluoro-indan-2-ylmethyl)-3-methoxy-piperidin-4-yl]-2,5-dimethyl-1H-benzoimidazole]	20 to 200	
CCC(C)C(=O)Nc1ccc2c(c1)CC(CN1CCC(n3c(C)nc4cc(C)ccc43)CC1)C2 (centres unmarked) [Example 51, N-{2-[4-(2,5-Dimethyl-benzoimidazol-1-yl)-piperidin-1-ylmethyl]-indan-5-yl}-2-methyl-butyramide]	20 to 200	
Cc1ccc2c(c1)nc(C(C)C)n2[C@@H]1CCN(C[C@@H]2Cc3ccc(NC(=O)C(C)C)cc3C2)C[C@H]1O [Example 86, N-{(R)-2-[(3R,4R)-3-Hydroxy-4-(2-isopropyl-5-methyl-benzoimidazol-1-yl)-piperidin-1-ylmethyl]-indan-5-yl}-isobutyramide]	20 to 200	
CO[C@H]1CN(C[C@@H]2Cc3ccc(Br)cc3C2)CC[C@@H]1n1c(C(C)C)nc2cc(C)ccc21 [Example 90, 1-[(3S,4S)-1-((R)-5-Bromo-indan-2-ylmethyl)-3-methoxy-piperidin-4-yl]-2-isopropyl-5-methyl-1H-benzoimidazole]	200 to 5000	
CO[C@@H]1CN(C[C@H]2Cc3ccc(Br)cc3C2)CC[C@H]1n1c(C(C)(C)O)nc2cc(F)ccc21 [Example 111, 2-{1-[(3R,4R)-1-((S)-5-Bromo-indan-2-ylmethyl)-3-methoxy-piperidin-4-yl]-5-fluoro-1H-benzoimidazol-2-yl}-propan-2-ol]	20 to 200	
CS(=O)(=O)c1ccc2c(c1)nc(C(F)(F)F)n2C1CCN(C[C@H]2Cc3ccc(Br)cc3C2)CC1 [Example 121, 1-[1-((S)-5-Bromo-indan-2-ylmethyl)-piperidin-4-yl]-5-methanesulfonyl-2-trifluoromethyl-1H-benzoimidazole]	20 to 200	
CO[C@H]1CN(C[C@H]2Cc3ccc(NC(=O)C(C)C)cc3C2)CC[C@@H]1n1c(C)nc2cc(C)ccc21 [Example 49, N-{(S)-2-[(3S,4S)-4-(2,5-Dimethyl-benzoimidazol-1-yl)-3-methoxy-piperidin-1-ylmethyl]-indan-5-yl}-isobutyramide]	20 to 200	
CO[C@@H]1CN(C[C@@H]2Cc3ccc(NC(=O)C4CC4)cc3C2)CC[C@H]1n1c(C2CC2)nc2cc(C)ccc21 [Example 80, Cyclopropanecarboxylic acid {(R)-2-[(3R,4R)-4-(2-cyclopropyl-5-methyl-benzoimidazol-1-yl)-3-methoxy-piperidin-1-ylmethyl]-indan-5-yl}-amide]	200 to 5000	
Cc1ccc2c(c1)nc(C)n2C1CCN(C[C@@H]2Cc3ccc(NC(=O)C(C)C)cc3C2)CC1 [Example 35, N-{(R)-2-[4-(2,5-Dimethyl-benzoimidazol-1-yl)-piperidin-1-ylmethyl]-indan-5-yl}-isobutyramide]	< 20	
COC(=O)Nc1ccc2c(c1)C[C@H](CN1CC[C@@H](n3c(C4CC4)nc4cc(C)ccc43)[C@H](OC)C1)C2 [Example 75, {(R)-2-[(3R,4R)-4-(2-Cyclopropyl-5-methyl-benzoimidazol-1-yl)-3-methoxy-piperidin-1-ylmethyl]-indan-5-yl}-carbamic acid methyl ester]	20 to 200	
Cc1ccc2c(c1)nc(-c1ccccc1)n2C1CCN(C[C@@H]2Cc3ccc(N)cc3C2)CC1 [Example 52, (R)-2-[4-(5-Methyl-2-phenyl-benzoimidazol-1-yl)-piperidin-1-ylmethyl]-indan-5-ylamine]	20 to 200	
Cc1ccc2c(c1)nc(C)n2[C@@H]1CCN(C[C@H]2Cc3ccc(NC(=O)C4CC4)cc3C2)C[C@H]1O [Example 88, Cyclopropanecarboxylic acid {(S)-2-[(3R,4R)-4-(2,5-dimethyl-benzoimidazol-1-yl)-3-hydroxy-piperidin-1-ylmethyl]-indan-5-yl}-amide]	20 to 200	
Cc1cc2nc(C)n(C3CCN(C[C@@H]4Cc5ccc(NC(=O)C(C)C)cc5C4)CC3)c2cn1 [Example 10, N-{(R)-2-[4-(2,6-Dimethyl-imidazo[4,5-c]pyridin-3-yl)-piperidin-1-ylmethyl]-indan-5-yl}-isobutyramide; compound with trifluoro-acetic acid]	200 to 5000	
Cc1ccc2c(c1)nc(C)n2C1CCN(C[C@H]2Cc3ccc(NC(=O)Cc4cccs4)cc3C2)CC1 [Example 38, N-{(S)-2-[4-(2,5-Dimethyl-benzoimidazol-1-yl)-piperidin-1-ylmethyl]-indan-5-yl}-2-thiophen-2-yl-acetamide]	< 20	
CO[C@H]1CN(C[C@@H]2Cc3ccc(NC(=O)C4CC4)cc3C2)CCC1n1c(C2CC2)nc2cc(C)ccc21 (stereo in doubt) [Example 66, Cyclopropanecarboxylic acid {(R)-2-[(3S,4S)-4-(2-cyclopropyl-5-methyl-benzoimidazol-1-yl)-3-methoxy-piperidin-1-ylmethyl]-indan-5-yl}-amide]	< 20	12
CO[C@@H]1CN(CC2Cc3ccccc3C2)CC[C@H]1n1c(C(C)(C)O)nc2cc(C)ccc21 [Example 107, 2-[1-((3R,4R)-1-Indan-2-ylmethyl-3-methoxy-piperidin-4-yl)-5-methyl-1H-benzoimidazol-2-yl]-propan-2-ol]	20 to 200	
CCC(=O)Nc1ccc2c(c1)C[C@H](CN1CC[C@@H](n3c(C4CC4)nc4cc(C)ccc43)[C@H](OC)C1)C2 [Example 76, N-{(R)-2-[(3R,4R)-4-(2-Cyclopropyl-5-methyl-benzoimidazol-1-yl)-3-methoxy-piperidin-1-ylmethyl]-indan-5-yl}-propionamide]	20 to 200	
Cc1ccc2c(c1)nc(C)n2[C@H]1CCN(C[C@@H]2Cc3ccc(NC(=O)C(C)C)cc3C2)C[C@@H]1OCC(C)(C)O [Example 15, N-{(R)-2-[(3S,4S)-4-(2,5-Dimethyl-benzoimidazol-1-yl)-3-(2-hydroxy-2-methyl-propoxy)-piperidin-1-ylmethyl]-indan-5-yl}-isobutyramide; dihydrochloride]	< 20	
